For assay [1], the system named is ECM gathering. Particulars: animal experiments of renal fibrosis, pulmonary fibrosis; clinical trials of patients with specific lung fibrosis; cited from earlier work.
Assay [2] relates to BHK-21 cells. Nature of the assay: inhibition of BHK-21 cell proliferation (CCK-8, optical density at 450 nm). Format: cell-based. Particulars: for IC50: Mesocricetus auratus, inhibition ratio of cell proliferation, 48 hours after dosing, CCK-8; for The ratio with PFD (multiple): ratio of Pirfenidone IC50 from the compound IC50, the bigger the multiple, the better the vitro inhibitory activity, 48 hours. The procedure: Taking BHK-21 cells which in exponential growth phase, collecting and counting the cells which had digestive transfer culture after fusion growth 85-95%, adjusting the cell density to 2×10^4 cells per milliliter, seeding the cells into 96-well plates, 100 μl/well, the cells were incubated in a 5% CO2 incubator at 37° C.
The upper clear liquid of the 96-well plates was removed after the cells adhering to the wall 24 hours. The above compounds were confected into solutions of different concentration and the solutions were added to the wells, 100 μl/well. Each concentration solution in 3 replicates, the cells were subcultured 48 hours after dosing.
3. Testing the Optical Density
10 μl of CCK-8 solution was added to each well 48 hours after dosing, and incubated for 2 hours. The optical density (A) of each well was determined by a microplate reader at 450 nm wavelength. Calculating the inhibition ratio of cell proliferation of each compound is based on A and the inhibition ratio of cell proliferation (inhibition ratio, IR)=(1−value of experimental group (Ai)/value of control group (Ao))×100% and the IC50 of each compound at 48 hours was calculated by data processing software.

For `Cc1ccc(=O)n(-c2ccccc2)c1` [pirfenidone, 5-methyl-1-phenyl-2-(1H)-pyridone], in assay [1], the “effect on ECM gathering” value is “could prevent ECM gathering, or even reverse it”.
With `Cc1cc(=O)n(-c2ccc3ccn(COc4cccc(C#N)c4)c3c2)c(C)n1` [Example 48, 3-((6-(2,4-dimethyl-6-oxopyrimidin-1(6H)-yl)-1H-indol-1-yl)methoxy)benzonitrile], in assay [2], the IC50 – broadly, the point on the concentration scale where inhibition reaches its midpoint – was 350 µM and the “The ratio with PFD (multiple)” value turned out to be 10.60 multiple.
The like results for `Cc1cc(=O)n(-c2ccc(N3CCOCC3=O)c(F)c2)c(COc2cccc(F)c2)n1` [Example 66, 4-(2-fluoro-4-(2-((3-fluorophenoxy)methyl)-4-methyl-6-oxopyrimidin-1(6H)-yl)phenyl) morpholin-3-one] were, in that order, 230 µM and 14.95 multiple.
The like results for `Cc1cc(=O)n(-c2ccc(N3CCOCC3)c(F)c2)c(C)n1` [Example 7, 3-(3-fluoro-4-morpholinophenyl)-2,6-dimethylpyrimidin-4(3H)-one] were, in that order, 740 µM and 1.35 multiple.
Turning to `Cc1cc(=O)n(-c2ccc(N3CCCCC3)c(F)c2)c(C)n1` [Example 11, 3-(3-fluoro-4-(piperidin-1-yl)phenyl)-2,6-dimethylpyrimidin-4(3H)-one], in assay [2], the IC50 was 1320 µM and the “The ratio with PFD (multiple)” value came to 2.91 multiple.
As for `CCCCCCN(CCCCCC)c1ccc(-n2c(COc3cccc(F)c3)nc(C)cc2=O)cc1F` [Example 62, 3-(4-(dihexylamino)-3-fluorophenyl)-2-((3-fluorophenoxy)methyl)-6-methylpyrimidin-4(3H)-one], in assay [2], the IC50 is 310 µM and the “The ratio with PFD (multiple)” value was found to be 24.68 multiple.
The like results for `Cc1cc(=O)n(-c2ccc(N3CCOCC3)c(F)c2)c(C(F)(F)Oc2cccc(F)c2)n1` [Example 69, 2-(difluoro(3-fluorophenoxy)methyl)-3-(3-fluoro-4-morpholinophenyl)-6-methylpyrimidin-4(3H)-one] were, in that order, 90 µM and 42.03 multiple.
On to `Cc1cc(=O)n(-c2ccc(N3CCOCC3)c(Cl)c2)c(COc2cccc(C#N)c2)n1` [Example 65, 3-((1-(3-chloro-4-morpholinophenyl)-4-methyl-6-oxo-1,6-dihydropyrimidin-2-yl)methoxy)benzonitrile], for which, in assay [2], the IC50 amounted to 20 µM and the “The ratio with PFD (multiple)” value is 119.61 multiple.
For the compound `Cc1cc(=O)n(-c2ccc(N3CCOCC3)c(F)c2)c(COc2cc(F)cc(F)c2)n1` [Example 50, 2-((3,5-difluorophenoxy)methyl)-3-(3-fluoro-4-morpholinophenyl)-6-methylpyrimidin-4(3H)-one], in assay [2], the 50% inhibitory concentration (IC50) came out at 60 µM and the “The ratio with PFD (multiple)” value is reported as 42.93 multiple.
The like results for `Cc1cc(=O)n(-c2cc(F)c3c(c2)OCC2CCCN32)c(C)n1` (stereo not drawn) [Example 13, 3-(9-fluoro-2,3,3a,4-tetrahydro-1H-benzo[b]pyrrolo[1,2-d][1,4]oxazin-7-yl)-2,6-dimethylpyrimidin-4(3H)-one] were, in that order, 1980 µM and 2.01 multiple.
Regarding `Cc1cc(=O)n(-c2ccc(N3CCOCC3)c(Cl)c2)c(COc2cccc(F)c2)n1` [Example 63, 3-(3-chloro-4-morpholinophenyl)-2-((3-fluorophenoxy)methyl)-6-methylpyrimidin-4(3H)-one], in assay [2], the IC50 is 40 µM and the “The ratio with PFD (multiple)” value stood at 47.43 multiple.
With `Cc1cc(=O)n(-c2ccc(N3CCOCC3)c(F)c2)c(COC2CCCCC2)n1` [Example 58, 2-((cyclohexyloxy)methyl)-3-(3-fluoro-4-morpholinophenyl)-6-methylpyrimidin-4(3H)-one], in assay [2], the IC50 turned out to be 290 µM and the “The ratio with PFD (multiple)” value is recorded as 26.37 multiple.
The like results for `Cc1cc(=O)n(-c2ccc(NCCCN3CCOCC3)c(F)c2)c(C)n1` [Example 30, 3-(3-fluoro-4-((3-morpholinopropyl)amino)phenyl)-2,6-dimethylpyrimidin-4(3H)-one] were, in that order, 540 µM and 13.18 multiple.
The like results for `Cc1ccc(=O)n(-c2ccc(CN3CCOCC3)c(F)c2)c1` [Example 1, 1-(3-fluoro-4-(morpholinomethyl)phenyl)-5-methylpyridin-2(1H)-one] were, in that order, 400 µM and 16.6 multiple.
The like results for `Cc1cc(=O)n(-c2ccc(N3CCOCC3)c(Cl)c2)c(COc2cccc(Cl)c2)n1` [Example 64, 3-(3-chloro-4-morpholinophenyl)-2-((3-chlorophenoxy)methyl)-6-methylpyrimidin-4(3H)-one] were, in that order, 190 µM and 10.69 multiple.
As for `Cc1cc(=O)n(-c2ccc(NC(C)(C)Cc3ccc4ccccc4c3)c(Cl)c2)c(C)n1` [Example 45, 3-(3-chloro-4-((2-methyl-1-(naphthalen-2-yl)propan-2-yl)amino)phenyl)-2,6-dimethylpyrimidin-4(3H)-one], in assay [2], the IC50 amounted to 70 µM and the “The ratio with PFD (multiple)” value is reported as 42.60 multiple.
On to `Cc1cc(=O)n(-c2ccc(N3CCOCC3)c(F)c2)c(COc2cncc(F)c2)n1` [Example 60, 3-(3-fluoro-4-morpholinophenyl)-2-(((5-fluoropyridin-3-yl)oxy)methyl)-6-methylpyrimidin-4(3H)-one], for which, in assay [2], the concentration for half-maximal inhibition (IC50) amounted to 540 µM and the “The ratio with PFD (multiple)” value worked out at 13.72 multiple.
Turning to `Cc1cc(=O)n(-c2ccc(N3CCN(C)CC3)c(F)c2)c(C)n1` [Example 12, 3-(3-fluoro-4-(4-methylpiperazin-1-yl)phenyl)-2,6-dimethylpyrimidin-4(3H)-one], in assay [2], the IC50 worked out at 1400 µM and the “The ratio with PFD (multiple)” value amounted to 2.74 multiple.
As for `Cc1cc(=O)n(-c2ccc(NCCN3CCOCC3)c(F)c2)c(COc2cccc(F)c2)n1` [Example 57, 3-(3-fluoro-4-((2-morpholinoethyl)amino)phenyl)-2-((3-fluorophenoxy)methyl)-6-methylpyrimidin-4(3H)-one], in assay [2], the IC50 amounted to 100 µM and the “The ratio with PFD (multiple)” value turned out to be 84.22 multiple.
The like results for `CCOCCCNc1ccc(-n2c(C)nc(C)cc2=O)cc1F` [Example 34, 3-(4-((3-ethoxypropyl)amino)-3-fluorophenyl)-2,6-dimethylpyrimidin-4(3H)-one] were, in that order, 2490 µM and 3.10 multiple.
Take `COc1cccc(OCc2nc(C)cc(=O)n2-c2ccc(N3CCOCC3)c(F)c2)c1` [Example 71, 3-(3-fluoro-4-morpholinophenyl)-2-((3-methoxyphenoxy)methyl)-6-methylpyrimidin-4(3H)-one]: in assay [2], the IC50 is 80 µM and the “The ratio with PFD (multiple)” value is reported as 48.76 multiple.
The like results for `Cc1cc(=O)n(-c2ccc(N3CCOCC3)c(Cl)c2)c(C)n1` [Example 46, 3-(3-chloro-4-morpholinophenyl)-2,6-dimethylpyrimidin-4(3H)-one] were, in that order, 1070 µM and 2.80 multiple.
On to `Cc1cc(=O)n(-c2ccc(N3CCOCC3)c(F)c2)c(CSc2cccc(F)c2)n1` [Example 51, 3-(3-fluoro-4-morpholinophenyl)-2-(((3-fluorophenyl)thio)methyl)-6-methylpyrimidin-4(3H)-one], for which, in assay [2], the IC50 came to 100 µM and the “The ratio with PFD (multiple)” value was found to be 25.14 multiple.
